pIC50: −log10 of the molar value.

The target in one assay is HPK1 (Homo sapiens (Human), UniProt Q92918). Description: HPK1 kinase activity inhibition test (ADP-Glo, luminescence). The note with it: HPK1 5 nM, ATP 2 μM, read-out: IC50, inhibitory effects of compounds on HPK1 kinase activity. The class given is biochemical. The gist of the method: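 HPK1 autophosphorylation was run without added substrate. Kinase and compound were preincubated 10 min at 25° C., then ATP was added for 60 min at 25° C. ADP formed was detected by ADP-Glo luminescence, and IC50 was taken from a four-parameter nonlinear fit.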
Chain of HPK1 (Q92918 whole entry): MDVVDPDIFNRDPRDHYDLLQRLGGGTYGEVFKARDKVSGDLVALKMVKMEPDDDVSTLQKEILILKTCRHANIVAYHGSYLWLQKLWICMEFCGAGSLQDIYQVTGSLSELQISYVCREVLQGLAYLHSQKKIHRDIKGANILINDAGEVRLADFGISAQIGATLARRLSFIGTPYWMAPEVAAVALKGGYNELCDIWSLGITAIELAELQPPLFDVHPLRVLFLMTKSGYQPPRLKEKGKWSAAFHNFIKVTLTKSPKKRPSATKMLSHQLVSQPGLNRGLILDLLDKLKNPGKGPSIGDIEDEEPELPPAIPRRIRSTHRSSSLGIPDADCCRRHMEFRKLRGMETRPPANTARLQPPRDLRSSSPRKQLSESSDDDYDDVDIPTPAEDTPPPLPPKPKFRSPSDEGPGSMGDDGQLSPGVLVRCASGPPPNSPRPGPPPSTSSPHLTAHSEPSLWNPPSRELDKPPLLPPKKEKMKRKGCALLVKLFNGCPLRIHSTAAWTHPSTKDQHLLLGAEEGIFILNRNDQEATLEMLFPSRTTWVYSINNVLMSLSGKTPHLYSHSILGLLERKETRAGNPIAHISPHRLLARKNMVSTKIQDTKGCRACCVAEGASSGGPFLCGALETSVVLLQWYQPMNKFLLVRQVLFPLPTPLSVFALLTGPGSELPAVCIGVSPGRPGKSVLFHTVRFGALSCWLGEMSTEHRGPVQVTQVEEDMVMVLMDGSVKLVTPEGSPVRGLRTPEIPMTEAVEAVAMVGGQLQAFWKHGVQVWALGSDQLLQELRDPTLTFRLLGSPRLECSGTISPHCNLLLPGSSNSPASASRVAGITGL
In general terms: ADP-Glo turns the ADP formed in a reaction into a luminescent signal.

The next assay deals with Human Jurkat-E6-1 cells. Description: Measurement of IL-2 secretion of Jurkat cells by ELISA. The class given is cell-based. The note with it: Homo sapiens, Jurkat E6.1, anti-CD3/anti-CD28 stimulation 24 hours, read-out: Percentage of the amount of IL-2 secreted from compound treated/DMSO-treated cells; for activity at 3 µM: test compound 3.0 μM; for activity at 0.33 µM: test compound 0.33 μM. As for the experimental part:
2. Measurement of IL-2 Secretion of Jurkat Cells by ELISA
Human Jurkat-E6-1 cells were incubated with various concentrations of test compounds for 30 minutes in a humidified incubator at 37° C. and […]. Cells were transferred to cell culture plates pre-coated with anti-human CD3 antibody, then soluble anti-human CD28 antibody was added, and cells were stimulated for 24 hours at 37° C. and 5% CO2 in a humidified incubator. The cell culture medium was collected by centrifugation, and was then transferred to a 96-well transparent microtiter plate (Thermo) pre-coated with anti-human IL-2 antibody, incubated at room temperature for 2 hours, and gently shaken, washed with washing buffer for 4 times, and then followed the ELISA MAX Deluxe Set Human IL-2 (BioLegend) kit procedure, used a microplate reader (Molecular Device, i3X) to read the GD value. The best standard curve was selected by the microplate reader application software, and the corresponding concentration was calculated according to the GD value of the standard. Results are expressed as a percentage of the amount of IL-2 secreted from compound-treated/DMSO-treated cells.
For orientation: In an ELISA, binding on a coated surface is turned into a signal by an enzyme label.

For `COc1cccc(C)c1-n1nc2c(-c3ccc(N4CCN(C)CC4)cc3)n[nH]c2cc1=O` [Compound 2, 5-(2-methoxy-6-methylphenyl)-3-(4-(4-methylpiperazin-1-yl)phenyl)-1H-pyrazolo[4,3-c]pyridazin-6(5H)-one], the pIC50 at HPK1 is 6.30 to 7.30. Moreover, the activity at 3 µM in the assay on Human Jurkat-E6-1 cells amounted to 238%.
Take `COc1cccc(F)c1-n1nc2c(-c3ccc(N4CCOCC4)nc3)n[nH]c2cc1=O` [Compound 27, 5-(2-fluoro-6-methoxyphenyl)-3-(6-morpholinopyrid-3-yl)-1H-pyrazolo[4,3-c]pyridazin-6(5H)-one]: the pIC50 at HPK1 was not below 7.30. In the assay with Human Jurkat-E6-1 cells, the activity at 0.33 µM was found to be 302%.
In the case of `COc1ccncc1-n1nc2c(-c3ccc(C4=CCN(C)CC4)cc3)n[nH]c2cc1=O` [Compound 151, 5-(4-methoxypyrid-3-yl)-3-(4-(1-methyl-1,2,3,6-tetrahydropyridin-4-yl)phenyl)-1H-pyrazolo[4,3-c]pyridazin-6(5H)-one], the pIC50 on HPK1 was 6.30 to 7.30. For the same compound, the activity at 3 µM in the assay on Human Jurkat-E6-1 cells came to 230%.
Take `CN1CCN(c2ccc(-c3n[nH]c4cc(=O)n(-c5cccc6c5OCO6)nc34)cc2)CC1` [Compound 76]: the pIC50 on HPK1 is not below 7.30. Also, in the assay with Human Jurkat-E6-1 cells, the activity at 3 µM is 561%.
In the same order, the values of `CNC(=O)c1cc(F)c(-n2nc3c(-c4ccc(N5CCN(C)CC5)cc4)n[nH]c3cc2=O)c(OC)c1` [Compound 79, 3-fluoro-5-methoxy-N-methyl-4-(3-(4-(4-methylpiperazin-1-yl)phenyl)-6-oxo-1H-pyrazolo[4,3-c]pyridazin-5(6H)-yl)benzamide] are not below 7.30 and 361%.
In the same order, the values of `Cc1cccc(F)c1-n1nc2c(-c3ccc(N4CCN(C)CC4CO)cc3)n[nH]c2cc1=O` (centres unmarked) [Compound 130, 5-(2-fluoro-6-methylphenyl)-3-(4-(2-(hydroxymethyl)-4-methylpiperazin-1-yl)phenyl)-1H-pyrazolo[4,3-c]pyridazin-6(5H)-one] are not below 7.30 and 454%.
In the same order, the values of `[2H]C([2H])([2H])N1CCN(c2ccc(-c3n[nH]c4cc(=O)n(-c5c(C)cccc5F)nc34)cc2)CC1` [Compound 81, 5-(2-fluoro-6-methylphenyl)-3-(4-(4-(methyl-d3)piperazin-1-yl)phenyl)-1H-pyrazolo[4,3-c]pyridazin-6(5H)-one] are not below 7.30 and 679%.
In the case of `COc1cc(F)cc(F)c1-n1nc2c(-c3ccc(N4CCN(C)CC4)cc3)n[nH]c2cc1=O` [Compound 77, 5-(2,4-difluoro-6-methoxyphenyl)-3-(4-(4-methylpiperazin-1-yl)phenyl)-1H-pyrazolo[4,3-c]pyridazin-6(5H)-one], the pIC50 on HPK1 was not below 7.30. For the same compound, the activity at 1 µM with Human Jurkat-E6-1 cells (test compound 1.0 μM) amounted to 233%.
For the compound `CCS(=O)(=O)N1CCN(c2ccc(-c3n[nH]c4cc(=O)n(-c5c(C)cccc5F)nc34)cn2)CC1` [Compound 105], the pIC50 at HPK1 was not below 7.30. In addition, the activity at 3 µM in the assay on Human Jurkat-E6-1 cells worked out at 623%.
As for `[2H]C([2H])([2H])N1CCc2ccc(-c3n[nH]c4cc(=O)n(-c5c(C)cccc5F)nc34)cc2C1` [Compound 157, 5-(2-fluoro-6-methylphenyl)-3-(2-(methyl-d3)-1,2,3,4-tetrahydroisoquinolin-7-yl)-1H-pyrazolo[4,3-c]pyridazin-6(5H)-one], the pIC50 on HPK1 is not below 7.30. In the assay on Human Jurkat-E6-1 cells, the activity at 3 µM came to 935%.
`CCc1cccc(F)c1-n1nc2c(-c3ccc4c(c3)CN(C)CC4)n[nH]c2cc1=O` [Compound 160, 5-(2-ethyl-6-fluorophenyl)-3-(2-methyl-1,2,3,4-tetrahydroisoquinolin-7-yl)-1H-pyrazolo[4,3-c]pyridazin-6(5H)-one]: on HPK1, the pIC50 was not below 7.30. Further, in the assay on Human Jurkat-E6-1 cells, the activity at 3 µM was determined as 354%.
For `Cc1cc(C#N)cc(F)c1-n1nc2c(-c3ccc(N4CCN(C)CC4)cc3)n[nH]c2cc1=O` [Compound 42, 3-fluoro-5-methyl-4-(3-(4-(4-methylpiperazin-1-yl)phenyl)-6-oxo-1H-pyrazolo[4,3-c]pyridazin-5(6H)-yl)benzonitrile], at HPK1, the pIC50 is not below 7.30. Further, the activity at 3 µM in the assay on Human Jurkat-E6-1 cells came out at 365%.
In the case of `COc1cccc(F)c1-n1nc2c(-c3ccc(N4CCN5CCOC[C@@H]5C4)cc3)n[nH]c2cc1=O` [Compound 135, (S)-5-(2-fluoro-6-methoxyphenyl)-3-(4-(hexahydropyrazino[2,1-c][1,4]oxazin-8(1H)-yl)phenyl)-1H-pyrazolo[4,3-c]pyridazin-6(5H)-one], the negative logarithm of the IC50 (pIC50) on HPK1 is not below 7.30. Further, the activity at 3 µM in the assay on Human Jurkat-E6-1 cells was found to be 964%.
In the case of `Cc1cc(C#N)cc(F)c1-n1nc2c(-c3ccc(N4CCN(C)CC4)nc3)n[nH]c2cc1=O` [Compound 99, 3-fluoro-5-methyl-4-(3-(6-(4-methylpiperazin-1-yl)pyrid-3-yl)-6-oxo-1H-pyrazolo[4,3-c]pyridazin-5(6H)-yl)benzonitrile], on HPK1, the pIC50 is 6.30 to 7.30. In addition, the activity at 3 µM in the assay with Human Jurkat-E6-1 cells was 237%.
With `Cc1cccc(F)c1-n1nc2c(-c3ccc(N4CCN(C)CC4)c(F)c3)n[nH]c2cc1=O` [Compound 94], the pIC50 on HPK1 is not below 7.30. Further, in the assay on Human Jurkat-E6-1 cells, the activity at 3 µM amounted to 414%.
For `COc1cc(C#N)cc(F)c1-n1nc2c(-c3ccc(N4CCN5C(=O)OCC5C4)cc3)n[nH]c2cc1=O` (centres unmarked) [Compound 124, 3-fluoro-5-methoxy-4-(6-oxo-3-(4-(3-oxotetrahydro-1H-oxazolo[3,4-a]pyrazin-7(3H)-yl)phenyl)-1H-pyrazolo[4,3-c]pyridazin-5(6H)-yl)benzonitrile] the same measures were not below 7.30 and 570%.
In the same order, the values of `Cc1cccc(F)c1-n1nc2c(-c3ccc(N4CCN5CCOC[C@H]5C4)cc3)n[nH]c2cc1=O` [Compound 134, (R)-5-(2-fluoro-6-methylphenyl)-3-(4-(hexahydropyrazino[2,1-c][1,4]oxazin-8(1H)-yl)phenyl)-1H-pyrazolo[4,3-c]pyridazin-6(5H)-one] are not below 7.30 and 527%.
For `Cc1cccc(F)c1-n1nc2c(-c3ccc(N4C[C@@H](C)N(C)[C@@H](C)C4)cc3)n[nH]c2cc1=O` [Compound 90, 5-(2-fluoro-6-methylphenyl)-3-(4-((3S,5R)-3,4,5-trimethylpiperazin-1-yl)phenyl)-1H-pyrazolo[4,3-c]pyridazin-6(5H)-one] the same measures were not below 7.30 and 667%.
For `Cc1cccc(F)c1-n1nc2c(-c3ccc(N4CCC(N5CCN(C)CC5)CC4)cc3)n[nH]c2cc1=O` [Compound 143, 5-(2-fluoro-6-methylphenyl)-3-(4-(4-(4-methylpiperazin-1-yl)piperidin-1-yl)phenyl)-1H-pyrazolo[4,3-c]pyridazin-6(5H)-one], the pIC50 at HPK1 was not below 7.30. Besides, the activity at 3 µM with Human Jurkat-E6-1 cells amounted to 786%.
As to `Cc1cccc(F)c1-n1nc2c(-c3ccc4c(c3)CN(C3CC(N)C3)CC4)n[nH]c2cc1=O` (centres unmarked) [Compound 163], the negative-log IC50 (pIC50) on HPK1 is 6.30 to 7.30. Further, the activity at 3 µM in the assay on Human Jurkat-E6-1 cells was 117%.
As for `COc1cccc(F)c1-n1nc2c(-c3ccc(C4=CCN(C)CC4)cc3)n[nH]c2cc1=O` [Compound 23, 5-(2-fluoro-6-methoxyphenyl)-3-(4-(1-methyl-1,2,3,6-tetrahydro-pyridin-4-yl)phenyl)-1H-pyrazolo[4,3-c]pyridazin-6(5H)-one], the pIC50 on HPK1 is not below 7.30. The activity at 0.33 µM with Human Jurkat-E6-1 cells came to 379%.
Regarding `CN1CCN(c2ccc(-c3n[nH]c4cc(=O)n(-c5c(F)cccc5Cl)nc34)cn2)CC1` [Compound 107], the pIC50 on HPK1 was not below 7.30. Moreover, the activity at 3 µM in the assay on Human Jurkat-E6-1 cells came to 599%.

What is called pIC50 is −log10 of the IC50, conventionally taken in molar units.
